Experimental data published in patent US9758559B2, “Short peptides derived from VDAC1, compositions and methods of use thereof” (B.G. NEGEV TECHNOLOGIES AND APPLICATIONS LTD., AT …, priority 2013, dated 2017).
Where a SMILES comes first, the peptide text is derived from it. [ ]: non-standard residue; d: D form.

Columns and labels:
glioblastoma U-87 cells [1] = assay: Mitochondrial membrane potential analysis (TMRM, FACS); format: cell-based, human; details: 3 h incubation
Protocol: U-87 cells were incubated with the indicated concentrations of D-Δ1-14N-Ter-Antp (SEQ ID NO:9), washed with PBS, incubated with or without the potentiometric fluorescent dye TMRM (200 nM, 20 min), washed with PBS and subjected to FACS analysis. FCCP, allowing for Δψ dissipation, served as a control.
(§1) VDAC1 is a key component in regulating the energy production of the cell. It is known that cancer cells are characterized by elevated energy demand. The effects of D-Δ(1-14) N-Ter-Antp on the mitochondrial inner membrane polarization and cellular ATP level were examined using glioblastoma U-87 cells. U-87 cells were incubated for 3 h with the various concentrations of D-Δ1-14N-Ter-Antp or with FCCP (10 μM, control for depolarization) for 1 h.

[2] = tested on: rat glioblastoma cells (C6); assay: Cell death of C6 cells, PI staining and flow cytometry; format: cell-based; details: 6 h, serum-free medium, PI-positive cells
Protocol: (§2) The efficacy of the peptide comprising amino acids […] of the N-terminal domain of VDAC1, synthesized with D-amino acids (all D-stereomeric peptide) conjugated to the Antp sequence also synthesized from D-amino acids as a CPP (D-Δ(1-14) N-Ter-Antp, SEQ ID NO:9) was further examined for its activity of inducing cell death with brain tumor derived cell lines. Human primary glioblastoma cells (U-87), human neuroblastoma cells (SH-SY5Y) and rat glioblastoma cells (C6) were incubated (4×10^5 cells) for 6 h in a serum-free-medium containing different concentrations of D-Δ1-14N-Ter-Antp (SEQ ID NO:9). The previously disclosed LP4 peptide conjugated to Tf (Tf-D-LP4 peptide, SEQ ID NO:20) was used as a reference of activity. At the end of the incubation time the cells were stained with PI and the level of cell death, reflected by the percentage of PI-positive cells, was determined by flow cytometry.

U-87 cells = assay: TEM visualization of apoptotic cell death; format: cell-based, human; details: 2.8 μM peptide
Protocol: Representative images of transmission electron microscopy (TEM) of untreated cells (FIG. 8A) or cells treated with 2.8 μM of D-Δ1-14N-Ter-Antp (FIG. 8B) are shown.

[3] = tested on: glioblastoma cell line U-87; assay: Cytochrome c release from mitochondria to cytosol (immunoblot); format: cell-based, human; details: U-87 cells, concentration-dependent
Protocol: Release of cytochrome c (Cyt c) from mitochondria to the cytosol was measured by immunoblots. Cells were incubated for 5 h with the indicated concentration of the peptide, harvested, washed twice with PBS and gently resuspended in ice-cold buffer (100 mM KCl, 2.5 mM MgCl2, 250 mM sucrose, 20 mM HEPES/KOH pH 7.5, 0.2 mMEDTA, 1 mM dithiothreitol, 1 μg/ml leupeptin, 5 μg/ml cytochalasin B and 0.1 mM phenylmethylsulfonyl fluoride) containing 0.025% digitonin and incubated for 10 min on ice. Samples were centrifuged at 10,000 g at 4° C. for 5 min to obtain the supernatants (cytosolic extracts free of mitochondria) and the pellets (fraction that contains mitochondria). The supernatants were analyzed by SDS-PAGE and immunoprobed using anti-Cyto c antibodies (1:2000, BD Pharmingen™ Cat #556433), and then with secondary horseradish peroxidase (HRP)-conjugated anti-mouse antibodies.
The effect of D-Δ(1-14) N-Ter-Antp on apoptosis was examined in the glioblastoma cell line U-87. U-87 cells were incubated with and without the peptide, treated with digitonin (0.02%) and the release of cytochrome c from mitochondria to the cytosolic fraction was analyzed by immunoblotting.

[4] = tested on: human neuroblastoma cells (SH-SY5Y); assay: Cell death of SH-SY5Y cells, PI staining and flow cytometry; format: cell-based; details: 6 h, serum-free medium, PI-positive cells
Protocol: as §2

glioblastoma U-87 cells [5] = assay: ATP quantification (CellTiter-Glo); format: cell-based, human; details: 3 h incubation
Protocol: U-87 cells were seeded in 96-well plates (2×10^6/ml), incubated for 3 h with the indicated concentrations of D-Δ1-14N-Ter-Antp (SEQ ID NO:9), washed twice with PBS and incubated with the CellTiter-Glo reagent (Promega). Luminescence was recorded using an Infinite M1000 microplate reader (Tecan Trading, Mannedorf, Switzerland).
as §1

MEC-1 cells = format: cell-based; details: 90 min incubation, serum-free medium, PI staining, FACS, read-out: IC50, induction of cell death, MEC-1
Protocol: MEC-1, MO1043 and T-Rex-293 cells were grown in DMEM supplemented with 10% FCS, 2 mM L-glutamine, 1000 U/ml penicillin and 1 mg/ml streptomycin, U-87, C6 and PC3 were maintained in RPMI 1640 supplemented with 10-20% FCS, 2 mM L-glutamine, 1000 U/ml penicillin and 1 mg/ml streptomycin. All cells were maintained in a humidified atmosphere with 5% CO2 at 37° C.
PBMCs (4×10^5 or 8×10^5 cells/sample) were incubated in 200 μl serum-free medium with the examined peptide for 90 min at room temperature and centrifuged (500×g, 5 min) Cell death was analyzed by PI staining and flow cytometer (Beckton-Dickinson) and BD Cell Quest Pro software. Apoptotic cell death was also analyzed by PI and annexin V-FITC staining (Zaid H et al. 2005. 12:751-760), and by acridine orange and ethidium bromide staining and confocal microscopy (Olympus 1×81).
To optimize the VDAC1 N-terminal derived peptides with respect to stability, length and specific targeting to cancer cells, several versions of these peptides were designed and tested for their efficacy in inducing the death of CLL-derived lymphocytes and MEC-1 cells (Table 3). Cells were incubated for 90 min with increasing concentrations of the indicated peptide and death was analyzed by PI stating and FACS as described hereinabove. As is clearly shown in FIG. 1 (and Table 3), deleting 6 residues from the C-terminus of the peptide, including the GXXXG motif, yielded a non-active peptide (peptide Δ(21-26) N-Ter-Antp, SEQ ID NO:22).

CC[C@@H](C)[C@@H](NC(=O)[C@@H](CCCCN)NC(=O)[C@H](NC(=O)[C@@H](CCC(N)=O)NC(=O)[C@@H](CCCNC(=N)N)NC(=O)[C@@H](CC(C)C)NC(=O)CNC(=O)[C@@H](Cc1ccccc1)NC(=O)CNC(=O)[C@@H](Cc1ccc(O)cc1)NC(=O)CNC(=O)[C@@H](CCCCN)NC(=O)[C@H](NC(=O)[C@@H](Cc1ccccc1)NC(=O)[C@H](NC(=O)[C@@H](CC(=O)O)NC(=O)[C@H](N)CCCNC(=N)N)C(C)C)[C@H](C)O)[C@H](C)CC)C(=O)N[C@H](Cc1c[nH]c2ccccc12)C(=O)N[C@H](Cc1ccccc1)C(=O)N[C@H](CCC(N)=O)C(=O)N[C@H](CC(N)=O)C(=O)N[C@H](CCCNC(=N)N)C(=O)N[C@H](CCCNC(=N)N)C(=O)N[C@H](CCSC)C(=O)N[C@H](CCCCN)C(=O)N[C@H](Cc1c[nH]c2ccccc12)C(=O)N[C@H](CCCCN)C(=O)N[C@H](CCCCN)C(=O)O [D-Δ(1-14) N-Ter-Antp, ALL D-RDVFTKGYGFGL RQIKIWFQNRRMKWKK] (H-[dR][dD][dV][dF][dT][dK]G[dY]G[dF]G[dL][dR][dQ][dI][dK][dI][dW][dF][dQ][dN][dR][dR][dM][dK][dW][dK][dK]-OH)
mitochondrial inner membrane polarization (glioblastoma U-87 cells [1]): induced mitochondrial inner membrane depolarization
IC50 [2]: 5300 nM
apoptotic morphology by TEM (U-87 cells): typical morphologic changes associated with apoptosis
release of cytochrome c from the mitochondria [3]: significantly induced
IC50 [4]: 2050 nM
cellular ATP level (glioblastoma U-87 cells [5]): almost complete reduction of cellular ATP level
IC50 (MEC-1 cells): 2100 ± 300 nM
